Measurements from patent US8461328B2, “Tricyclic heterocyclic compounds, compositions and methods of use thereof” (Genentech, Inc., priority 2010, dated 2013).

Tests used:
Type in all cases: biochemical
[1] = biological target: T1, TYK2 (Homo sapiens, UniProt P29597); assay: TYK2 inhibition (Table 4)
T1 construct: made in house; host or cells: SF9 insect cells (baculovirus)
T1 sequence (P29597 873-1187): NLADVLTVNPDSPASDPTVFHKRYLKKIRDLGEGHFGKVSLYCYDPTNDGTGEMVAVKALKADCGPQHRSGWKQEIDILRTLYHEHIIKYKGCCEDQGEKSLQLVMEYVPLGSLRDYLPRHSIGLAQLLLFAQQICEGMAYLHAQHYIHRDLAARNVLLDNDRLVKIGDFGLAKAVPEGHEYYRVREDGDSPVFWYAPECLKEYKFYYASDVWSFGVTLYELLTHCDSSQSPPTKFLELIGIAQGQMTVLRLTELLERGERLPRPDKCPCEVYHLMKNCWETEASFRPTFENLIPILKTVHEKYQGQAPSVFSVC

[2] = biological target: T2, JAK2 (Homo sapiens, UniProt O60674); assay: JAK2 inhibition (Table 4); details: read-out: JAK2 Ki
T2 construct: made in house; host or cells: SF9 insect cells (baculovirus)

[3] = biological target: T3, JAK1 (Homo sapiens, UniProt P23458); assay: JAK1 inhibition (Table 4); details: read-out: JAK1 Ki
T3 construct: made in house; host or cells: SF9 insect cells (baculovirus)

[4] = biological target: T4, JAK3 (Homo sapiens, UniProt P52333); assay: JAK3 inhibition (Table 4); details: read-out: JAK3 Ki
T4 construct: made in house; host or cells: SF9 insect cells (baculovirus)
T4 sequence (P52333 783-1124): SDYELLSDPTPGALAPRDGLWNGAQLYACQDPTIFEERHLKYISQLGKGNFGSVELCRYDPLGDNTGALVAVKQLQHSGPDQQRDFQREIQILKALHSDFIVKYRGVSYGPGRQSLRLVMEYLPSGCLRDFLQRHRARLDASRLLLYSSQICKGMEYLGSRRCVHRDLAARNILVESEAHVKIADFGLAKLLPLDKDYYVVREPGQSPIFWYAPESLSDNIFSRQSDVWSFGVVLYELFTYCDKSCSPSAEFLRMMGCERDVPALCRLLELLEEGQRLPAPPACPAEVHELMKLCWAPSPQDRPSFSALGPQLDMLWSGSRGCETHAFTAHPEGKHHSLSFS

T3 sequence (P23458 852-1154): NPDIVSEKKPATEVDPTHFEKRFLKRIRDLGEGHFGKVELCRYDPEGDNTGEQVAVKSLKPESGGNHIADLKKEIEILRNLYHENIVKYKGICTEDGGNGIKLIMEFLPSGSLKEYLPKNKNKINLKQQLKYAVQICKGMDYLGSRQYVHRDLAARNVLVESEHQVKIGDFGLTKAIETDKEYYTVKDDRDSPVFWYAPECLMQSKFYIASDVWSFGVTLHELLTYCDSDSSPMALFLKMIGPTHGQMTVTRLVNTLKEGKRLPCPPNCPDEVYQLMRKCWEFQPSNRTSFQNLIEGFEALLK
T2 sequence (O60674 812-1132): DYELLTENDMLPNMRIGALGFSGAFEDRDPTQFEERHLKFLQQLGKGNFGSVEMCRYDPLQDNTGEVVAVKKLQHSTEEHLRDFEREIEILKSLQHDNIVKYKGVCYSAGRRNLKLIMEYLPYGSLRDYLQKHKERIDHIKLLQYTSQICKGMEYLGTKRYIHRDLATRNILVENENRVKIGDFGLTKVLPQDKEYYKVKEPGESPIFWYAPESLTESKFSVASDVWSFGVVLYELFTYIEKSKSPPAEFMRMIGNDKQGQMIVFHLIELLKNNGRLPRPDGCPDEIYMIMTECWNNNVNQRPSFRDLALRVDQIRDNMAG

| Compound | Ki [1] | Ki [2] | Ki [3] | Ki [4] |
| --- | --- | --- | --- | --- |
| N#CCCN1CCC(n2nnc3cnc4[nH]ccc4c32)CC1 [Example 232, 3-[4-(6H-1,2,3,5,6-Pentaaza-as-indacen-1-yl)-piperidin-1-yl]-propionitrile] | 19.3 nM | 3.35 nM | 2.03 nM | 53.4 nM |
| CS(=O)(=O)N1CCC(n2nnc3cnc4[nH]ccc4c32)CC1 [Example 233, 1-(1-Methanesulfonyl-piperidin-4-yl)-1,6-dihydro-1,2,3,5,6-pentaaza-as-indacene] | 77.1 nM | 7.84 nM | 4.96 nM | 250 nM |
| c1ccc(CCN2CCC[C@@H](n3cnc4cnc5[nH]ccc5c43)C2)cc1 [Example 234, 1-((R)-1-Phenthyl-piperidin-3-yl)-1,6-dihydro-1,3,5,6-tetraaza-as-indacene] | 1760 nM | 179 nM | 63.3 nM | 132 nM |
| Cc1nc2cnc3[nH]ccc3c2n1[C@@H]1CCCN(Cc2ccccc2)C1 [Example 238, (R)-1-(1-Benzyl-piperidin-3-yl)-2-methyl-1,6-dihydro-1,3,5,6-tetraaza-as-indacene] | 171 nM | 26 nM | 29.3 nM | 85.2 nM |
| N#CCCN1CCC(n2c(CC(=O)N3CCC(F)(F)CC3)nc3cnc4[nH]ccc4c32)CC1 [Example 240, 3-(4-{2-[2-(4,4-Difloro-piperidin-1-yl)-2-oxo-ethyl]-6H-1,3,5,6-tetraaza-as-indacen-1-yl)-piperidin-1-yl]-propionitrile] | 72.7 nM | 56 nM | 6.92 nM | 7.35 nM |
| CC(C)(C)OC(=O)N1CCC[C@@H]1C(=O)N1CCC(n2cnc3cnc4[nH]ccc4c32)CC1 [Example 242, (R)-2-[4-(6H-1,3,5,6-Tetraaza-as-indacen-1-yl)-piperidine-1-carbonyl]-pyrrolidine-1-carboxylic acid tert-butyl ester] | 2560 nM | 311 nM | 217 nM | 4060 nM |
| O=C([C@H]1CC[C@H](n2nnc3cnc4[nH]ccc4c32)CC1)N1CCOCC1 [Example 246, Morpholin-4-yl-[4-(6H-1,2,3,5,6-pentaaza-as-indacen-1-yl)-cyclohexyl]-methanone] | 1620 nM | 183 nM | 164 nM | 652 nM |
| CC(C)NC(=O)[C@H]1CC[C@H](n2cnc3cnc4[nH]ccc4c32)CC1 [Example 247, 4-(6H-1,3,5,6-Tetraaza-as-indacen-1-yl)-cyclohexanecarboxylic acid isopropylamide] | 358 nM | 136 nM | 32.2 nM | 245 nM |
| O=C([C@H]1CCCN1)N1CCC(n2cnc3cnc4[nH]ccc4c32)CC1 [Example 248, (R)-Pyrrolidin-2-yl-[4-(6H-1,3,5,6-tetraaza-as-indacen-1-yl)-piperidin-1-yl]-methanone] | 3190 nM | 342 nM | 216 nM | 1160 nM |
| O=C([C@@H]1CCCN1)N1CCC(n2cnc3cnc4[nH]ccc4c32)CC1 [Example 249, (S)-Pyrrolidin-2-yl-[4-(6H-1,3,5,6-tetraaza-as-indacen-1-yl)-piperidin-1-yl]-methanone] | 1110 nM | 365 nM | 48.6 nM | 1180 nM |
| O=C([C@@H]1CC(F)(F)CN1)N1CCC(n2cnc3cnc4[nH]ccc4c32)CC1 [Example 250, ((S)-4,4-Difluoro-pyrrolidin-2-yl)-[4-(6H-1,3,5,6-tetraaza-as-indacen-1-yl)-piperidin-1-yl]-methanone] | 300 nM | 64.7 nM | 29 nM | 336 nM |
| N#CCCN1CCC(n2c(C(F)(F)F)nc3cnc4[nH]ccc4c32)CC1 [Example 256, 3-[4-(-2-Trifluoromethyl-6H-1,3,5,6-tetraaza-as-indacen-1-yl)-piperidin-1-yl]-propionitrile] | 68.8 nM | 9.21 nM | 7.86 nM | 9.96 nM |
| O=C(Cc1nc2cnc3[nH]ccc3c2n1C1CCN(Cc2ccccc2)CC1)N1CC(F)C1 [Example 258, 2-[1-(1-Benzyl-piperidin-4-yl)-1,6-dihydro-1,3,5,6-tetraaza-as-indacen-2-yl)-1-(3-fluoro-azetidin-1-yl)-ethanone] | 1810 nM | 125 nM | 28.8 nM | 14.4 nM |
| O=C(Cc1nc2cnc3[nH]ccc3c2n1C1CCN(Cc2ccccc2)CC1)N1CC(F)(F)C1 [Example 259, 2-[1-(1-Benzyl-piperidin-4-yl)-1,6-dihydro-1,3,5,6-tetraaza-as-indacen-2-yl)-1-(3,3-difluoro-azetidin-1-yl)-ethanone] | 1850 nM | 95.3 nM | 27.8 nM | 11.7 nM |
| N#CCCN1CCC(n2c(CC(=O)N3CCS(=O)(=O)CC3)nc3cnc4[nH]ccc4c32)CC1 [Example 267, 3-(4-{2-[2-(1,1-Dioxo-1lambda*6*-thiomorpholin-4-yl)-2-oxo-ethyl]-6H-1,3,5,6-tetraaza-as-indacen-1-yl}-piperidin-1-yl)-propionitrile] | 63.2 nM | 55.6 nM | 7.52 nM | 7.02 nM |

Results, then the molecule that gave them:

| Ki [1] | Ki [2] | Ki [3] | Ki [4] | Compound |
| --- | --- | --- | --- | --- |
| 1030 nM | 395 nM | 86.6 nM | 1140 nM | c1cc2c(ncc3nnn(C4CCNCC4)c32)[nH]1 [Example 231] |
| 61.5 nM | 126 nM | 7.66 nM | 128 nM | OCc1nc2cnc3[nH]ccc3c2n1C1CCNCC1 [Example 236, (1-Piperidin-4-yl-1,6-dihydro-1,3,5,6-tetraaza-as-indacen-2-yl)-methanol] |
| 7.39 nM | 5.1 nM | 1.53 nM | 10.4 nM | N#CCCN1CCC(n2c(CO)nc3cnc4[nH]ccc4c32)CC1 [Example 239, 3-[4-(2-Hydroxymethyl-6H-1,3,5,6-tetraaza-as-indacen-1-yl)-piperidin-1-yl]-propionitrile] |
| 468 nM | 43.1 nM | 9.84 nM | 19.4 nM | NC(=O)Cc1nc2cnc3[nH]ccc3c2n1C1CCN(Cc2ccccc2)CC1 [Example 245, 2-[1-(1-Benzyl-piperidin-4-yl)-1,6-dihydro-1,3,5,6-tetraaza-as-indacen-2-yl]-acetamide] |
| 1500 nM | 568 nM | 69.5 nM | 234 nM | FC(F)(F)c1nc2cnc3[nH]ccc3c2n1C1CCNCC1 [Example 254, 1-Piperidin-4-yl-2-trifluoromethyl-1,6-dihydro-1,3,5,6-tetraaza-as-indacene] |
| 1120 nM | 490 nM | 278 nM | 479 nM | c1cc2c(ncc3ncn(CC4CCNCC4)c32)[nH]1 [Example 255, 1-Piperidin-4-ylmethyl-1,6-dihydro-1,3,5,6-tetraaza-as-indacene] |
| 795 nM | 847 nM | 41.6 nM | 302 nM | NC(=O)Cc1nc2cnc3[nH]ccc3c2n1C1CCNCC1 [Example 260, 2-(1-Piperidin-4-yl-1,6-dihydro-1,3,5,6-tetraaza-as-indacen-2-yl)-acetamide] |
| 678 nM | 426 nM | 39 nM | 108 nM | CC(C)NC(=O)Cc1nc2cnc3[nH]ccc3c2n1C1CCNCC1 [Example 261, N-Isopropyl-2-(1-piperidin-4-yl-1,6-dihydro-1,3,5,6-tetraaza-as-indacen-2-yl)-acetamide] |
| 165 nM | 663 nM | 21.2 nM | 96.5 nM | O=C(Cc1nc2cnc3[nH]ccc3c2n1C1CCNCC1)N1CCS(=O)(=O)CC1 [Example 262, 1-(1,1-Dioxo-1lambda*6*-thiomorpholin-4-yl)-2-(1-piperidin-4-yl-1,6-dihydro-1,3,5,6-tetraaza-as-indacen-2-yl)-ethanone] |
| 401 nM | 152 nM | 55.3 nM | 19.1 nM | CN(C(=O)Cc1nc2cnc3[nH]ccc3c2n1C1CCN(CCC#N)CC1)C1CCCC1 [Example 263, 2-{1-[1-(2-Cyano-ethyl)-piperidin-4-yl]-1,6-dihydro-1,3,5,6-tetraaza-as-indacen-2-yl}-N-cyclopentyl-N-methyl-acetamide] |
| 63.4 nM | 26.7 nM | 5.32 nM | 14.1 nM | N#CCCN1CCC(n2c(CC(N)=O)nc3cnc4[nH]ccc4c32)CC1 [Example 264, 2-{1-[1-(2-Cyano-ethy)-piperidin-4-yl]-1,6-dihydro-1,3,5,6-tetraaza-as-indacen-2-yl}-acetamide] |
| 570 nM | 406 nM | 29.7 nM | 66.1 nM | O=C(Cc1nc2cnc3[nH]ccc3c2n1C1CCNCC1)NC1CCCC1 [Example 265, N-Cyclopentyl-2-(1-piperidin-4-yl-1,6-dihydro-1,3,5,6-tetraaza-as-indacen-2-yl)-acetamide] |
| 120 nM | 17.2 nM | 5.26 nM | 7.87 nM | CC(C)NC(=O)Cc1nc2cnc3[nH]ccc3c2n1C1CCN(CCC#N)CC1 [Example 266, 2-{1-[1-(2-Cyano-ethyl)-piperidin-4-yl]-1,6-dihydro-1,3,5,6-tetraaza-as-indacen-2-yl}-N-isopropyl-acetamide] |
| 120 nM | 16.1 nM | 5.06 nM | 7.5 nM | N#CCCN1CCC(n2c(CC(=O)NC3CCCC3)nc3cnc4[nH]ccc4c32)CC1 [Example 268, 2-{1-[1-(2-Cyano-ethyl)-piperidin-4-yl]-1,6-dihydro-1,3,5,6-tetraaza-as-indacen-2-yl}-N-cyclopentyl-acetamide] |
